Biological target: T1, OCT1 (organic cation transporter 1) (Homo sapiens, UniProt O15245)
T1 construct: gene SLC22A1
T1 sequence (O15245 1-554): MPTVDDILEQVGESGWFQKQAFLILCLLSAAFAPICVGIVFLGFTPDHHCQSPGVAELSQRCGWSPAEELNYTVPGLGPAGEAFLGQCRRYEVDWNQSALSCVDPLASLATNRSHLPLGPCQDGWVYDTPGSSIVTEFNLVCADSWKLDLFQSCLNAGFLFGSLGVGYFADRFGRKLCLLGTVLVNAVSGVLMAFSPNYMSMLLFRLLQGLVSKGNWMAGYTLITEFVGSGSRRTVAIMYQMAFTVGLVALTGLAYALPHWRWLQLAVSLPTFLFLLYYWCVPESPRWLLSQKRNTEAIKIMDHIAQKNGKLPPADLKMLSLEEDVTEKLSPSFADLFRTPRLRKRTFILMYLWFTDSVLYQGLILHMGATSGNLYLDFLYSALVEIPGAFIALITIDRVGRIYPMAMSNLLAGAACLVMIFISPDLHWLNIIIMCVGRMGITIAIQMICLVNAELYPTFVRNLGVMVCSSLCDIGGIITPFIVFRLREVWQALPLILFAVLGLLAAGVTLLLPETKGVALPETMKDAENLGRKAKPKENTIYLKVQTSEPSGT
Assay: inhibition of metformin uptake in HEK293-Flp-In-OCT1 cells, […] min pre-incubation, UPLC-MS/MS
Assay type: cell-based

Work on `O[C@@H](COc1cccc2ncccc12)CN1CCN([C@@H]2c3ccccc3[C@@H]3[C@H](c4ccccc42)C3(F)F)CC1` [zosuquidar] yielded an IC50 of 7.5 ± 3.7 µM.
